The source of these data is article PMC12285154, “New insights into the 17β-hydroxysteroid dehydrogenase type 10 and amyloid-β 42 derived cytotoxicity relevant to Alzheimer’s disease” (Alzheimer's Research & Therapy, 2025).

Experiment [1] deals with T1, 17β-hydroxysteroid dehydrogenase type 10 (HSD10) (Homo sapiens, UniProt Q99714).
T1 construct: gene HSD17B10; HSD10 overexpressed in HEK293 cells
T1 sequence (Q99714 2-261): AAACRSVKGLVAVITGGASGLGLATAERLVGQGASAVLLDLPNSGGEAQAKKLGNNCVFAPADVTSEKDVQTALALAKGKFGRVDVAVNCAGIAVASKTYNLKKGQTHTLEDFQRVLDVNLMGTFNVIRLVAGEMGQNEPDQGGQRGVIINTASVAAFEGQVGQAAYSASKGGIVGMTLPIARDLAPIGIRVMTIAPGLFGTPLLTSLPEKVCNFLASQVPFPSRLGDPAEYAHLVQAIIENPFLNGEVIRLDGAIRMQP
Put plainly: (-)-CHANA fluorogenic probe turnover in HSD10-overexpressing HEK293 cells. In kind it is cell-based.

In experiment [2] the target is amyloid-β 42 Aβ1-42 (Homo sapiens) (UniProt P05067). The note with it: cited from earlier work.
amyloid-β 42 Aβ1-42 (Homo sapiens), sequence (P05067 1-42): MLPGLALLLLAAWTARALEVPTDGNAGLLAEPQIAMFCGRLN

In the case of `O=C(C(c1ccccc1)n1cnc2[nH]ncc2c1=S)N1CCCCCC1` (stereo not drawn) [AG18051], the IC50 in experiment [1] is 190 nM. `COc1ccc2nc(NC(=O)c3ccc(O)c(Cl)c3)sc2c1` [compound 34, inhibitor 34] came in with an IC50 in experiment [1] of 4260 nM.

In the case of HSD10 (from UniProt Q99714), the dissociation constant Kd in experiment [2] is 55.8 nM.
